Measured values taken from patent US20230322854A1, “HUNTINGTIN-RELATED PEPTIDE AGENTS AND USES THEREOF” (UNIVERSITY OF SOUTHERN CALIFORNIA, priority 2020, published 2023).
“Also recorded” adds a separate entry of the source. No end group written: not given here.

Columns and labels:
[1] = system: Httex1 aggregates; experiment: Labeling of Httex1 aggregates in retinal sections of Huntington mouse models; conditions: 34-week-old R6/1 mice, 0.1 micromolar
Source text: FIG. 28 presents fluorescence microscopy pictures showing that HD8-Alexa488 labels aggregated Httex1 in retina sections from two different mouse model of Huntington disease. Left panels show nuclear stain that labels all cells. Right panels show signal from HD8-Alexa488. Top panels show a retinal section from a R6/1 mouse, and bottom panels show a retinal section from a zQ175KI mouse.
Left panels show nuclear stain that labels all cells (A1 and B1), and right panels show signal from HD8-SP10-HD1-fluorescein (A2 and B2). Top panels are higher magnification that show the ganglion cell layer of the retina, and the bottom panels are lower magnification micrographs that show all retinal layers. Labeling of all retinal layers is seen when the HD peptides are dimerized. The phase contrast panel to the left of the bottom panels show the corresponding retinal layers: ONL: outer nuclear layer that contain rod and cone photoreceptor cells, INL: inner nuclear layer that contains cell bodies from horizontal cells, bipolar cells, amacrine cells and Müller cells, GCL: ganglion cell layer.
To see whether HD peptides bind Httex1 aggregates formed in vivo, we used tissues from two different Huntington mouse models, R6/1 (34 weeks old) and zQ175KI (48 weeks). FIG. 28 show retinal sections from these mice incubated with 2 micromolar of HD8 conjugated with Alexa488 at its carboxyl terminus.
HD8-HD1-fluorescein (0.1 micromolar) was also used on retinal sections from 34-week-old R6/1 mice (FIG. 29). […] In addition, weaker signal from intranuclear aggregates was also observed. Further, the signal can now be detected in all layers of the retina where the nuclei reside.

[2] = system: Httex1 aggregates; experiment: Labeling of Httex1 aggregates in brain sections of R6/1 mice; parameters: species or system mouse; conditions: R6/1 mice (34 weeks) versus age-matched control
Source text: Brain sections from age-matched littermate control and R6/1 mouse are shown in this figure.
HD8-HD1-fluorescein was also used on brain sections from R6/1 mice (34 weeks).

[3] = target: T1, Httex1Q72 aggregates (Homo sapiens, UniProt P42858, INS38QQQQQQQQQQQQQQQQQQQQQQQQQQQQQQQQQQQQQQQQQQQQQQQQQQQ); experiment: Labeling of Httex1Q72 aggregates in fixed transfected HEK293 cells; format: cell-based; conditions: fixed cells 24 h after transfection, 0.1 micromolar peptide overnight
T1 construct: Httex1Q72 (without RFP) was transfected into HEK293 cells; expressed in transfected cells
Source text: Left panels show fluorescent images (top left panel: nuclear stain to visualize all cells; middle left panel: fluorescein signal arising from the HD8-SP10-HD1-fluorescein peptide; bottom left panel: antibody against fluorescein to further amplify fluorescein signal). Right panels show phase contrast image of the same field. Arrows point to cytoplasmic aggregates that could be visualized with fluorescent signals or under phase contrast. Asterisks mark intranuclear aggregates that were labeled with HD8-SP10-HD1-fluorescein but not anti-fluorescein antibody.
Next, we tested the ability of HD peptides to bind Httex1 aggregates formed in cultured cells. To do this, Httex1Q72 (without RFP) was transfected into HEK293 cells. […] The antibody labeled the rim of the cytoplasmic aggregates and the signal also surrounded some cell nuclei. Little antibody staining was observed on intranuclear aggregates.

[4] = system: unbundled Huntingtin fibrils (exon 1); experiment: Radioactive binding assay, immobilized unbundled Huntingtin fibrils; conditions: for binding to Htt-fibrils: radiolabeled mRNA-peptide fusions, fibrils immobilized on beads
Source text: Messenger RNA (mRNA) display (described in (Roberts, et al. (1997) Proc Natl Acad Sci USA 94: 12297-302, Takahashi, et al. (2003) Trends Biochem Sci 28: 159-65); FIG. 2) was used to engineer peptide agents that bind to unbundled fibrils of Huntingtin exon 1. To do this, unbundled Huntingtin fibrils were generated by mixing biotinylated Huntingtin protein (exon 1; FIG. 1) with non-biotinylated exon 1 Huntingtin protein at a ratio of 1:20 (˜5% biotinylated Huntingtin). These fibrils were then immobilized on Neutravidin agarose (Thermo Fisher) or Streptavidin ultralink beads (Thermo Fisher) via the attached biotin. A MX9 (where X is any of the 20 natural amino acids) mRNA display library was generated using published procedures (Takahashi, et al. (2009) Methods Mol Biol 535: 293-314) and incubated with immobilized fibrils. Non-binding sequences were washed away and the remaining fibril binding peptides were amplified via RT-PCR. This process was repeated seven times.
(§1) The binding of the peptide library was determined using a radioactive binding assay. In this assay, peptides were radiolabeled by translating the mRNA coding for these peptides in the presence of ^35S-methionine using rabbit reticulocyte lysate (Jackson, et al. (1983) Methods Enzymol 96: 50-74). These peptides were translated in an mRNA display format and were thus linked to their encoding mRNA, as described above. After purification by dT chromatography, the radiolabeled peptides were incubated with Huntingtin fibrils immobilized on Neutravidin Agarose or Streptavidin Ultralink beads. The beads were then filtered through a Spin X column (Corning) to separate the supernatant and beads, then washed to remove unbound sequences. The supernatant, washes, and beads were all counted in a scintillation counter to determine the counts in each sample. The percent bound was determined by dividing the counts on the beads with the total counts (beads+washes+supernatant).

[5] = system: monomeric Huntingtin; experiment: Radioactive binding assay, monomeric Huntingtin; conditions: radiolabeled peptide
Experimental: as §1
HD1 through HD4 were also tested for binding to monomeric Huntingtin (FIG. 5).
(§2) HD1 and HD8 were also tested for binding specificity. Radiolabeled HD1 and HD8 were incubated with monomeric Huntingtin, unbundled Htt-fibrils, or α-Synuclein fibrils (α-Synuclein is another protein known to aggregate and form fibrils).

[6] = system: Htt-fibrils; experiment: EPR of spin-labeled peptide binding to Htt-fibrils; conditions: spin-labeled synthetic peptide
Experimental: FIG. 10 presents graphs showing testing binding of chemically synthesized HD1 or HD8 using Electron Paramagnetic Resonance (EPR). […] Panel B is a graph showing the results of experiments aimed at the determination of the stoichiometry of peptides binding to Httex1 molecules in the fibril, in which a spin-labeled peptide (HD1 or HD8) is added to 15 μM fibrils.
HD1 and HD8 binding was analyzed by electron paramagnetic resonance (EPR). The synthetic peptides were spin labeled using a free Cys at the C-terminus of the peptides. […] The stoichiometry of the complex was also studied using EPR, with varying amounts of peptide added to fibrils (FIG. 10, panel B).

[7] = target: α-Synuclein fibrils (Homo sapiens, UniProt P37840); experiment: Radioactive binding assay, α-Synuclein fibrils; conditions: radiolabeled peptide
Experimental: as §1, §2

[8] = system: Huntingtin protein; experiment: In vitro Huntingtin aggregation assay imaged by electron microscopy; format: biochemical; conditions: synthetic peptide, 6 days
Experimental: Synthetic HD1 and HD8 were also tested for their ability to inhibit fibril formation in an in vitro Huntingtin aggregation assay. In this assay, Huntingtin protein aggregated over a period of 6 days, forming fibrils that could be imaged using electron microscopy (FIG. 8; Controls).

[9] = target: T2, Huntingtin Exon 1 Q39 (Homo sapiens, UniProt P42858, DUP21-38); experiment: Co-localization of Alexa 488-labeled peptide with Httex1 Q39-RFP in fixed N2A cells; format: cell-based, mouse; conditions: fixed N2A cells transfected with Httex1 Q39-RFP
T2 construct: expressing Huntingtin Exon 1 Q39 (mutant Huntingtin with 39 CAG repeats) fused to red fluorescent protein (tagRFP); expressed in transfected cells; host or cells: N2A (mouse neuroblastoma cell line)
Experimental: In these experiments, N2A cells (mouse neuroblastoma cell line) were transfected with Httex1 Q39 fused with RFP (middle column). Cells were fixed and stained for HD 1 or HD 8 with Alexa 488 (left column). Co-localization of HD1/HD8 with Httex1 aggregates is shown in the merged image (co-localization observed in cells is indicated by white arrows). The “CTRL” rows show the non-transfected cells, which were treated with 5 times more peptide to confirm the localization was not due to aggregations of peptides or off-target binding occurring in the cell.
HD1 and HD8 were also tested to see if the synthetic peptide recognized Huntingtin fibrils from cells. In this assay, HD1 and HD8 are were labeled with the fluorescent dye, Alexa 488 and were incubated with fixed N2A cells (a mouse neuroblastoma cell line) that were expressing Huntingtin Exon 1 Q39 (mutant Huntingtin with 39 CAG repeats) fused to red fluorescent protein (tagRFP). In control experiments, with no Huntingtin exon 1 (Q39)-RFP fusion (Httex1 Q39) transfected, a diffuse signal is observed with HD1 and HD8 peptides (FIG. 11; Controls).

[10] = Radioactive binding assay, beads without target (no target control); conditions: radiolabeled peptide
Experimental: as §1

[11] = system: Htt-fibrils; experiment: Competition binding of synthetic peptide against radiolabeled peptide on immobilized fibrils; conditions: competitor = synthetic peptide in DMSO, 3.2 Fibril; for binding of radiolabeled HD8 to Htt-fibrils on addition of synthetic peptide: not to the same extent as with radiolabeled HD1
Experimental: Radiolabeled HD1 or HD8 were bound to immobilized fibrils and the appropriate compound was tested in a competition binding assay. From left to right and for each dataset shown on the graph (i.e., “HD1” and “HD8”), the bars represent “No Target+DMSO”, “No Target+HD1”, “No Target+HD8”, “3.2 Fibril+DMSO”, “3.2 Fibril+HD1”, and “3.2 Fibril+HD8”.
HD1 and HD8 were chemically synthesized and purified by reverse-phase HPLC and resuspended in DMSO. In order to verify that these synthetic peptides were functional for binding, we designed a competition experiment. We radiolabeled HD1 and HD8 above then tested to see if synthetic HD1 or HD8 would compete and reduce binding of the radiolabeled peptides. […] Binding to Htt-fibrils (3.2 Fibril+DMSO) was reduced by the addition of synthetic HD1 (3.2 Fibril+HD1) or by addition of synthetic HD8 (3.2 Fibril+HD8).

[12] = target: unbundled fibrils of Huntingtin exon 1 (about 5% biotinylated), immobilized on beads (UniProt P42858); experiment: radioactive binding assay, fibrils immobilised on beads
[13] = listed as HD8-SP10-HD1-fluorescein

T2 sequence (P42858 with tags, fused parts or gaps DUP21-38): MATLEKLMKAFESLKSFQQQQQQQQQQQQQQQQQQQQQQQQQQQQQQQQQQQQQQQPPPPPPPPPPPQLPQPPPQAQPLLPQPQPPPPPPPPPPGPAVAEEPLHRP
T1 sequence (P42858 with tags, fused parts or gaps limits assumed, stated change not applied): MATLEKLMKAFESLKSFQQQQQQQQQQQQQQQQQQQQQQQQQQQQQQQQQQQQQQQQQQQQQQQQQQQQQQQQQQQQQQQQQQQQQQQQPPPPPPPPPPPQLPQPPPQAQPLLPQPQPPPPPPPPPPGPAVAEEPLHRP

binding to Htt-fibrils in the presence of serum ([4]; serum diluted 1:2, 1:5 or 1:10 with buffer (TBST))	binding to monomeric Huntingtin [5]	EPR central line amplitude upon addition of Htt fibrils (peptide-fibril complex formation) [6]	binding to α-Synuclein fibrils [7]	colocalization of Alexa 488 signal and RFP signal [9]	binding of radiolabeled HD1 to Htt-fibrils on addition of synthetic peptide [11]	binding of radiolabeled HD8 to Htt-fibrils on addition of synthetic peptide [11]	fold less binding as compared with HD1 and HD8 [12] [fold]	Substance	labeling of retinal sections [1]	labeling of retinal sections [1, 13]	labeling of brain sections [2]	labeling of brain sections [2, 13]	labeling of Httex1Q72 aggregates [3]	labeling of Httex1Q72 aggregates [3, 13]	binding to Htt-fibrils [4]	inhibition of fibril formation [8]	binding to beads without target [10]
								HD8-HD1-fluorescein: HD8-HD1 labeled with fluorescein at its carboxyl terminus (MWQMMNGMSQGSGTSGSSGSMDWWPMWPSL-fluorescein)	Robust signal from the peptide can be seen in the ganglion cell layer	enhanced reactivity of Httex1 aggregates in all retinal layers	abundant signal from R6/1 brain	labels Httex1 aggregates in brain section	strong labeling of the round cytoplasmic Httex1Q72 aggregates (arrows) and intranuclear aggregates	bound Httex1Q72 aggregates			
serum partially inhibits the binding	little to no binding	decrease in central line amplitude	little to no binding	significant colocalization	reduced	similarly reduced		MDWWPMWPSL [HD1]							demonstrated binding to Htt-fibrils; also recorded: bind to Htt-fibrils; also recorded: show binding to Htt-fibrils	significant inhibition of fibril formation	little to no binding to beads without target; also recorded: little to no binding
	little to no binding	decrease in central line amplitude	little to no binding	significant colocalization	reduced	similarly reduced		MWQMMNGMSQ [HD8]							good binding to Htt-fibrils; also recorded: bind to Htt-fibrils; also recorded: show binding to Htt-fibrils	significant inhibition of fibril formation	little to no binding to beads without target; also recorded: little to no binding; also recorded: low binding to beads without target
							10	QBP1 (peptide)									
